In experiment [1] the target is Carbonic anhydrase 1 (Homo sapiens) (UniProt P00915).
Description: Inhibition of human carbonic anhydrase 1 by stopped-flow CO2 hydrase assay
Experiment [2] relates to Helicobacter pylori.
Description: Inhibition of Helicobacter pylori beta carbonic anhydrase by stopped-flow CO2 hydrase assay
In experiment [3] the test system is Helicobacter pylori. This is another data set of the same source.
Description: Inhibition of Helicobacter pylori alpha carbonic anhydrase by stopped-flow CO2 hydrase assay
In experiment [4] the target is Carbonic anhydrase 2 (Homo sapiens) (UniProt P00918).
Description: Inhibition of human carbonic anhydrase 2 by stopped-flow CO2 hydrase assay

Chain of Carbonic anhydrase 1 (Homo sapiens) (P00915 2-261 limits assumed): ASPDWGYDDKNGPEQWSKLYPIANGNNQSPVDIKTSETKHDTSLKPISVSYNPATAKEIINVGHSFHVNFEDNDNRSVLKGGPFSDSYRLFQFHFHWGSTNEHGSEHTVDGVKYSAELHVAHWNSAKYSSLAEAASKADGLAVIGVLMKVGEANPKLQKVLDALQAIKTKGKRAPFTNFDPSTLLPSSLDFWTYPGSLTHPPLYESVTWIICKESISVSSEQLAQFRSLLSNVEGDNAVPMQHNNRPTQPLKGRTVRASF

Consider `CC(C)(C)c1ccc(C(=O)Nc2cccc(S(N)(=O)=O)c2)cc1`, for which the Kinact in experiment [1] worked out at 10.8 µM; in experiment [2], 241 nM; in experiment [3] it was 316 nM.

With `CC(C)(C)c1ccc(C(=O)Nc2ccccc2S(N)(=O)=O)cc1`, the figures for the Kinact in experiment [1], in experiment [2] and in experiment [3] were 12.3 µM, 23500 nM and 539 nM, respectively.

As for `Cc1ccc(S(N)(=O)=O)cc1`, the Kinact was 78.5 µM in experiment [1], 2470 nM in experiment [2] and 430 nM in experiment [3].

With `CC(C)(C)c1ccc(C(=O)Nc2nnc(S(N)(=O)=O)s2)cc1`, the Kinact in experiment [1] was determined as 0.541 µM; in experiment [2] it was 28 nM; in experiment [3] it was 13 nM.

Consider `NS(=O)(=O)c1ccc(CO)cc1`, for which the values for the Kinact in experiment [2] and in experiment [3] were 236 nM and 876 nM, respectively.

For the compound `Nc1ccc(S(N)(=O)=O)cc1Br`, the Kinact was 1240 nM in experiment [2] and 452 nM in experiment [3].

Consider `Nc1ccccc1S(N)(=O)=O`, for which the Kinact in experiment [2] was 16400 nM; in experiment [3], 426 nM.

For `NNc1ccc(S(N)(=O)=O)cc1`, the Kinact in experiment [1] stood at 28 µM; in experiment [2] it was 8650 nM.

For the compound `Nc1ccc(S(N)(=O)=O)cc1Cl`, the results for the Kinact in experiment [2] and in experiment [3] were 1460 nM and 378 nM, respectively.

With `Nc1ccc(S(=O)(=O)NCCc2ccc(S(N)(=O)=O)cc2)cc1`, the values for the Kinact in experiment [2] and in experiment [3] were 71 nM and 114 nM, respectively.

As to `CC(C)(C)c1ccc(S(=O)(=O)Nc2ccc(S(N)(=O)=O)cc2)cc1`, the Kinact in experiment [1] was determined as 13 µM; in experiment [2], 150 nM; in experiment [3], 60 nM.

In the case of `Nc1ccc(S(=O)(=O)Nc2nnc(S(N)(=O)=O)s2)cc1`, the Kinact worked out at 64 nM in experiment [2] and 268 nM in experiment [3].

For `CC(C)(C)c1ccc(C(=O)Nc2ccc(S(N)(=O)=O)cc2)cc1`, the Kinact in experiment [1] was found to be 14.2 µM; in experiment [2] it was 158 nM; in experiment [3], 79 nM.

With `CC(C)(C)c1ccc(S(=O)(=O)NCCc2ccc(S(N)(=O)=O)cc2)cc1`, the Kinact in experiment [1] is 12 µM; in experiment [2], 45 nM; in experiment [4], 94 nM; in experiment [3] it was 27 nM.

As for `CC(C)(C)c1ccc(C(=O)NCCc2ccc(S(N)(=O)=O)cc2)cc1`, the Kinact in experiment [1] was found to be 13.3 µM; in experiment [2] it was 44 nM; in experiment [4], 127 nM; in experiment [3], 62 nM.

In the case of `Nc1ccc(S(N)(=O)=O)cc1I`, the results for the Kinact in experiment [1], in experiment [2] and in experiment [3] were 6 µM, 1150 nM and 510 nM, respectively.

Turning to `NS(=O)(=O)c1ccc(C(=O)O)cc1`, the Kinact in experiment [2] came to 450 nM; in experiment [3], 1050 nM.

With `Nc1ccc(S(N)(=O)=O)cc1F`, the Kinact in experiment [2] amounted to 1360 nM; in experiment [3], 1230 nM.

`Cn1nc(S(N)(=O)=O)sc1=N`: the Kinact came out at 768 nM in experiment [2] and 549 nM in experiment [3].

For the compound `CC(C)(C)c1ccc(S(=O)(=O)NCc2ccc(S(N)(=O)=O)cc2)cc1`, the Kinact in experiment [1] is 12.2 µM; in experiment [2], 96 nM; in experiment [4] it was 104 nM; in experiment [3], 31 nM.

For `CC(C)(C)c1ccc(S(=O)(=O)Nc2nnc(S(N)(=O)=O)s2)cc1`, the Kinact in experiment [1] is 0.338 µM; in experiment [2], 24 nM; in experiment [3], 12 nM.

With `CC(=O)/N=c1/sc(S(N)(=O)=O)nn1C`, the Kinact in experiment [2] was 176 nM; in experiment [3] it was 225 nM.

As to `NCc1ccc(S(N)(=O)=O)cc1`, the Kinact came out at 2360 nM in experiment [2] and 873 nM in experiment [3].

As to `CC(C)(C)c1ccc(C(=O)NCc2ccc(S(N)(=O)=O)cc2)cc1`, the Kinact in experiment [1] amounted to 12.3 µM; in experiment [2] it was 101 nM; in experiment [4], 241 nM; in experiment [3], 539 nM.

Consider `NS(=O)(=O)c1nnc(-c2ccccc2Cl)s1`, for which the Kinact came to 0.69 µM in experiment [1] and 37 nM in experiment [2].

`CCN[C@H]1CN(CCCOC)S(=O)(=O)c2sc(S(N)(=O)=O)cc21`: the figures for the Kinact in experiment [2] and in experiment [3] were 128 nM and 210 nM, respectively.

Consider `CC(C)(C)c1ccc(S(=O)(=O)Nc2cccc(S(N)(=O)=O)c2)cc1`, for which the Kinact in experiment [1] was 9.62 µM; in experiment [2] it was 213 nM; in experiment [3] it was 318 nM.

Regarding `Nc1ccc(S(=O)(=O)NCc2ccc(S(N)(=O)=O)cc2)cc1`, the Kinact in experiment [2] was found to be 87 nM; in experiment [3], 131 nM.

With `Nc1nccc(Nc2ccc(S(N)(=O)=O)cc2)n1`, the values for the Kinact in experiment [2] and in experiment [3] were 38 nM and 84 nM, respectively.

Turning to `CC(C)(C)c1ccc(S(=O)(=O)Nc2ccccc2S(N)(=O)=O)cc1`, the Kinact in experiment [1] is 14.7 µM; in experiment [2], 24800 nM; in experiment [4], 295 nM; in experiment [3], 640 nM.

The record behind these values is ChEMBL document CHEMBL1148873, “Carbonic anhydrase inhibitors: the beta-carbonic anhydrase from Helicobacter pylori is a new target for sulfonamide and sulfamate inhibitors” (Bioorg Med Chem Lett, 2007).
